Results on six compounds are retold here after publication PMC11532403 (Signal Transduction and Targeted Therapy, 2024).

Read-outs that look alike come from different tables or passages of the source.

For one data set, the system named is RET. Conditions: cited from earlier work.
In data set [1] the test system is RET-altered / thyroid / lung tumors. Conditions: cited from earlier work.
A further data set concerns patients. Conditions: cited from earlier work.
In data set [2] the test system is HEK293T-KIF5B-RET^V804M xenograft. In words: Tumor xenograft model. It is filed as in vivo, BALB/c nude mice. The settings on record: 20 mg/kg twice daily, 14 days. On the procedure:
All procedures relating to animal handling, care, and treatment were performed according to the Beijing Laboratory Animal Management Regulations. 6-week-old male BALB/c nude mice were inoculated subcutaneously into the flank with Baf3-CCDC6-RET^WT (5*10^6 cells/ 0.1 mL/ each), Baf3-CCDC6-RET^M918T (5*10^6 cells/0.1 mL/each), Baf3-CCDC6-RET^V804M (5*10^6 cells/ 0.1 mL/ each), or HEK293T-KIF5B-RET^V804M (5*10^6 cells/ 0.1 mL/ each). Mice were randomized by tumor size into groups of 10 to 12 when tumor volume reached approximately 100-150 mm^3. […] Tumor size and body weight were measured two times each week, and tumor volume was calculated with the following formula: [length × (width)^2]/ 2. Statistical significance was calculated by using two-way ANOVA test to assess the difference in tumor volumes between the control (vehicle-treated) and treatment groups.

The target in another data set is hERG potassium channel (Homo sapiens, UniProt Q12809). The arrangement: method as in literature. The settings on record: in vitro GLP hERG assay, ref literature; cited from earlier work. On the technique in general: The hERG channel carries a current that helps repolarise heart muscle cells.
Chain of hERG potassium channel (Q12809 whole entry): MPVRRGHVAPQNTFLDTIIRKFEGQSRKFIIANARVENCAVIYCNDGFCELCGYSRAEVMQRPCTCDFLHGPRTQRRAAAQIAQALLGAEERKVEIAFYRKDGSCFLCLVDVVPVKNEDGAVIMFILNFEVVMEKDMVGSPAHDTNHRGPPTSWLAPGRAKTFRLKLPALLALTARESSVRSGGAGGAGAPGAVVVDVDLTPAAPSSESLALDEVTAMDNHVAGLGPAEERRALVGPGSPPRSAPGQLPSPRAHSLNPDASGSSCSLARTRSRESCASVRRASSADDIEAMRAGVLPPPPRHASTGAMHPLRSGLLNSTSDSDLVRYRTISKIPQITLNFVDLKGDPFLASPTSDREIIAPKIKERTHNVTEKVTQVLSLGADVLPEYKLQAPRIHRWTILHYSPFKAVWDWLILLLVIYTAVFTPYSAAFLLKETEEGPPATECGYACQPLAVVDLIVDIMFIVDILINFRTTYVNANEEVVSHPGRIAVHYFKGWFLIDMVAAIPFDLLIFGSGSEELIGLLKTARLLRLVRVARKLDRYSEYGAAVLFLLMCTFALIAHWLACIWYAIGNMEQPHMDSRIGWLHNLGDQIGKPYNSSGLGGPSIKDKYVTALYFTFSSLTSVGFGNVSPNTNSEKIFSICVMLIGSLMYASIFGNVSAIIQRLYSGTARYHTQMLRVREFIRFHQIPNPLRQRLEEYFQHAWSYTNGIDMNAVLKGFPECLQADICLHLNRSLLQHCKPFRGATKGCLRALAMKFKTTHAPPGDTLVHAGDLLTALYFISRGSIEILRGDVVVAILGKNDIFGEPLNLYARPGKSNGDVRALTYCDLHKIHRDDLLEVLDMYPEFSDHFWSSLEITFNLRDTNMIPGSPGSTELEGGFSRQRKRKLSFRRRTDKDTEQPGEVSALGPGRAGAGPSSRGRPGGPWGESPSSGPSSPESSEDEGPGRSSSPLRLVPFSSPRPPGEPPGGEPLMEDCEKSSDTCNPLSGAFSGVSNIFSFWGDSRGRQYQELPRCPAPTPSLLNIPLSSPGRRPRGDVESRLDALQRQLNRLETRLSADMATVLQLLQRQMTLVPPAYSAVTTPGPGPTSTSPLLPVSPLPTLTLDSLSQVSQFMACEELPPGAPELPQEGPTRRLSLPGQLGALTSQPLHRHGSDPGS
For another data set, the system named is MET. Details: method as in earlier work. The settings on record: read-out: MET IC50 ± SD; cited from earlier work.
The next data set relates to VEGFR-2. The arrangement: method as in earlier work. Conditions: read-out: VEGFR-2 IC50 ± SD; cited from earlier work.

For `COc1cc2c(Nc3ccc(Br)cc3F)ncnc2cc1OCC1CCN(C)CC1` [vandetanib], the IC50 (in general, the concentration that gives 50% inhibition) in the data set on RET was […].
Regarding `COc1cc2nccc(Oc3ccc(NC(=O)NC4CC4)c(Cl)c3)c2cc1C(N)=O` [lenvatinib], in data set [1] (NCT01877083, RET fusion NSCLC, 24 mg/d ref 93), the ORR is 16%. Further, in data set [1] (NCT01877083 ref 93), the DCR is reported as 76% and the mPFS is reported as 7.3 months. For the same compound, the “Patients with grade 3 or higher AEs” value with patients (NCT01877083 ref 93) is listed as 92%.
For `COc1ccc(CN2C3CC2CN(c2ccc(-c4cc(OCC(C)(C)O)cn5ncc(C#N)c45)cn2)C3)cn1` [selpercatinib], in data set [2], the inhibition of tumour growth (TGI) (usually the reduction of tumour growth relative to the control group) worked out at 45.2%. Besides, the IC50 on hERG potassium channel is 1100 nM. In addition, the ORR in data set [1] (LIBRETTO-001, 19 RET fusion-positive thyroid cancer ref 96-97) was 79%; in data set [1] (LIBRETTO-001, 39 NSCLC without systemic therapy ref 96-97) it was 84%; in data set [1] (LIBRETTO-001, 105 RET fusion-positive NSCLC ref 96-97), 64%; in data set [1] (LIBRETTO-001, NSCLC, previously treated ref 28), 61%; in data set [1] (LIBRETTO-001, RET-mutant thyroid cancer, 55 previously treated ref 96-97), 69%; in data set [1] (LIBRETTO-001, RET-mutant thyroid cancer, 88 not previously treated ref 96-97), 73%. Besides, the ORR is reported as 84% in data set [1] (LIBRETTO-431, NSCLC, treatment-naïve ref 30) and 69.4% in data set [1] (LIBRETTO-531, RET-mutant MTC ref 32). Besides, the “1-year DoR rate” value in data set [1] (previously treated ref 28) is reported as 73.1%; in data set [1] (treatment-naïve ref 28), 66.1%. Besides, the “1-year PFS rate” value in data set [1] (previously treated ref 28) was 70.5%; in data set [1] (treatment-naïve ref 28), 70.6%. Also, the “Grade ≥ 3 TRAEs” value in the data set with patients (LIBRETTO-001 ref 28) is on record as 38.6%. Also, the “Grade ≥ 3 hypertension” value in the data set on patients (LIBRETTO-001 ref 28) is 13.2%. Moreover, the “Grade ≥ 3 increased ALT” value in the data set with patients (LIBRETTO-001 ref 28) was 9.0%. Moreover, the “Grade ≥ 3 increased AST” value with patients (LIBRETTO-001 ref 28) was 6.3%. The TRSAEs with patients (LIBRETTO-001 ref 28) is reported as 11%. Further, in the data set on patients, the Treatment-induced deaths is 0.1%. In addition, the Treatment-induced discontinuations with patients was 3%. Moreover, the Treatment-induced dose reductions in the data set with patients is listed as 41%.
In the case of `COc1cc2nccc(Oc3ccc(NC(=O)C4(C(=O)Nc5ccc(F)cc5)CC4)cc3)c2cc1OC` [cabozantinib], the ORR in data set [1] (NCT00704730, MTC ref 89) is recorded as 28%. For the same compound, in data set [1] (NCT00704730, MTC, 140 mg/d ref 89), the mPFS is reported as 11.2 months. In addition, in data set [1] (RET M918T-positive subgroup ref 89), the mOS is 44.3 months. The 50% inhibitory concentration (IC50) in the data set on MET is 1.3 ± 1.2 nM; with VEGFR-2 it was 0.035 ± 0.01 nM.
As for `CNC(=O)c1cc(Oc2ccc(NC(=O)Nc3ccc(Cl)c(C(F)(F)F)c3)cc2)ccn1` [sorafenib], the PR rate in data set [1] (DECISION ref 80) is 12.2%.
`CO[C@]1(C(=O)N[C@@H](C)c2ccc(-n3cc(F)cn3)nc2)CC[C@H](c2nc(C)cc(Nc3cc(C)[nH]n3)n2)CC1` [pralsetinib]: in data set [1] (ARROW, NSCLC ref 101), the Complete response is reported as 14% and the “Patients with tumor shrinkage” value is on record as 95%. The ORR in data set [1] (ARROW, RET fusion-positive NSCLC ref 101) is recorded as 61%. For the same compound, the ORR in data set [1] (ARROW, RET fusion-positive NSCLC, previously treated ref 29) is recorded as 59%. Besides, in data set [1] (ARROW, RET fusion-positive NSCLC, treatment-naïve ref 29), the ORR was 72%. Besides, the ORR in data set [1] (ARROW, RET-mutant MTC previously treated with vandetanib ref 101) was 60%. The ORR in data set [1] (ARROW, treatment-naïve MTC ref 101) was 74%. Moreover, the ORR in data set [1] (ARROW, treatment-naïve RET-mutant MTC ref 31) was 71%. In addition, in the data set on patients (ARROW ref 22,29), the “Grade ≥ 3 TRAEs” value is 54%, the “Grade ≥ 3 anemia” value is 12%, the “Grade ≥ 3 hypertension” value is 12% and the “Grade ≥ 3 leukopenia” value is on record as 8%. In addition, in the data set with patients (ARROW ref 22,29), the “Grade ≥ 3 lymphopenia” value is reported as 9%, the “Grade ≥ 3 neutropenia” value is listed as 20% and the TRSAEs is reported as 24%. Moreover, in the data set with patients, the Treatment-induced deaths is listed as 0.4%, the Treatment-induced discontinuations is listed as 7% and the Treatment-induced dose reductions is 38%.
